Five compounds from patent US20050277660A1, “Novel tetrahydroquinoline derivatives” (priority 2002, published 2005) can be followed below.

The structures appear in SMILES notation.

For test [1], the system named is Orchiectomized (ORX) Rats. Kind of test: Effect on prostate, femoral bone mineral density and levator ani muscle in ORX rats, subcutaneous (Test Example 2). The class given is in vivo, rat. To be noted: 4 weeks; for Femoral bone mineral density / Levator ani muscle weight / Prostate weight: 5 days per week, Mean ± SD; for Femoral bone mineral density: DEXA, right femur. The source says: (§1) Effect on Prostate, Femoral Bone Mineral Density, and Levator Ani Muscle in Orchiectomized (ORX) Rats
Testes were removed from 12-week-old male SD rats. […] The compound of the Example and the DHT were each dissolved in dimethyl sulfoxide, and then diluted 10-fold with olive oil. The resulting solution of each concentration was used in the test. In an ORX control group, dimethyl sulfoxide diluted 10-fold with olive oil was used for the test.

The subject of test [2] is Orchiectomized (ORX) Rats. Description: Effect on prostate, femoral bone mineral density and levator ani muscle in ORX rats, subcutaneous (Test Example 3). To be noted: 4 weeks; for Femoral bone mineral density / Levator ani muscle weight / Prostate weight: 5 days per week, Mean ± SD; for Femoral bone mineral density: DEXA, right femur. The class given is in vivo, rat.
Text: as §1
Testes were removed from 12-week-old male SD rats. […] The compounds of the Examples and the DHT were each dissolved in dimethyl sulfoxide, and then diluted 10-fold with olive oil. The resulting solution of each concentration was used in the test. In an ORX control group, dimethyl sulfoxide diluted 10-fold with olive oil was used for the test.

The target of test [3] is T1, Rat Androgen Receptors (Rat AR) (Rattus norvegicus, UniProt P15207).
T1 construct: from tissue; host or cells: prostate of orchiectomized male SD rats (100,000 x g supernatant of the homogenate)
T1 sequence (P15207 1-902): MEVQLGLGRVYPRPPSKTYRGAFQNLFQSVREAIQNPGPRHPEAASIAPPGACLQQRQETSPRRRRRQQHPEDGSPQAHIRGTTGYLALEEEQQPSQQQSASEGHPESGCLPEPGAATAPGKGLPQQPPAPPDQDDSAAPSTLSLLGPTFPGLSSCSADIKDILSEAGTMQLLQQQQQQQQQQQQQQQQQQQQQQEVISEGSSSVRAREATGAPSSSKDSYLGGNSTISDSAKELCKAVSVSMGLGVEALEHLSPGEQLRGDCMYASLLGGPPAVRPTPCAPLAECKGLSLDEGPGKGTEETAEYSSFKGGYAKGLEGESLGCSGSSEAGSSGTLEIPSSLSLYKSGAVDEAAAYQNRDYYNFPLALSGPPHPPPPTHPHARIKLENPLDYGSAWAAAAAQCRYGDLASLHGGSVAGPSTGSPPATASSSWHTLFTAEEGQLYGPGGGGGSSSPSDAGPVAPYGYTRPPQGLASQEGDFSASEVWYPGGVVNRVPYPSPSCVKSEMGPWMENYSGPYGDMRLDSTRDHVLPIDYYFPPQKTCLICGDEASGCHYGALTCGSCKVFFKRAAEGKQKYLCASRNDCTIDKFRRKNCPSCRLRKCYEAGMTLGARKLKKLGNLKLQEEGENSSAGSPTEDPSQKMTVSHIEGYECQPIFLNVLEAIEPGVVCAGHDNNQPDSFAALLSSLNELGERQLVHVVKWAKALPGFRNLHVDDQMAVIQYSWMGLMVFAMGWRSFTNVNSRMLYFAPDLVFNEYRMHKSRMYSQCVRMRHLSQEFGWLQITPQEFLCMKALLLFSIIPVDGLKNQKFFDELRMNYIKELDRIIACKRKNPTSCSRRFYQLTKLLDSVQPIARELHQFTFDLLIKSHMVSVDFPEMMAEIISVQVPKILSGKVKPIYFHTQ
Kind of test: Test for competitive binding to rat androgen receptors (Test Example 1). To be noted: 100×(IC50 of bicalutamide)/(IC50 of compound); bicalutamide taken as 100; 3H-testosterone, rat prostate AR fraction. Here is the method: Test for Competitive Binding to Rat Androgen Receptors (Rat AR)
Preparation of rat AR fraction: Prostates were harvested into ice-cooled ET buffer (10 mM Tris, 1 mM EDTA, 5 mM DTT, 10 mM sodium molybdate, pH 7.4) 3 days after orchiectomy in 11-week-old male SD rats. The prostate was finely cut, and ET buffer was added, whereafter the mixture was homogenized using a homogenizer. The homogenate was ultracentrifuged (100,000×g, 60 min, 4° C.), and the supernatant was used as a rat AR fraction (hereinafter referred to as ARF).
Binding test: ^3H-testosterone (hereinafter referred to as ^3H-T) was diluted with ET buffer. Dihydrotestosterone (DHT) was prepared so as to have a concentration (final concentration 1 μM) 400 times the maximum concentration of ^3H-T (2.5 nM). The ^3H-T solution was added to a 1.5 ml tube containing DHT, no DHT, or various concentrations of a test compound. Further, 200 μg ARF was added to adjust the final volume to 100 μl. The mixture was incubated for 2 hours at 4° C., and then 300 μl of a 0.05% dextran T70-1.0% activated carbon solution was added. The mixture was further incubated for 15 minutes in ice to remove the free ^3H-T by adsorption. […] The mixture was stirred, allowed to stand, and measured for ^3H radioactivity with a liquid scintillation counter.

Test [4] deals with Orchiectomized (ORX) Rats. Kind of test: Effect of oral administration on prostate, femoral bone mineral density and levator ani muscle in ORX rats (Test Example 4). To be noted: 30 mg/kg orally twice daily, 4 weeks. The class given is in vivo, rat. Here is the method:
Effect of the Oral Administration on Prostate, Femoral Bone Mineral Density, and Levator Ani Muscle in Orchiectomized (ORX) Rats
Testes were removed from 12-week-old male SD rats. From the following day onward, the compound of Example 16 (30 mg/5 ml/kg) was orally administered twice daily for 4 consecutive weeks on 7 days per week. The test compound was suspended in a 0.5% methylcellulose solution as a solvent, and used in the test. In an ORX control group, a 0.5% methylcellulose solution (5 ml/kg) was administered. The rats, which had not been orchiectomized, but had been subjected to laparotomy, followed by closure of the abdomen, were used as a sham control group. On the next day after final administration, the wet weights of the ventral prostate and the levator ani muscle were measured, and the bone mineral density of the right femur was measured by the DEXA method (dual energy X-ray absorptiometry), to evaluate the in vivo effect of the compound of Example 16.

Take `CC(C)(CNC(=O)c1ccc(OC(F)(F)F)cc1)[C@H]1Nc2ccc(C#N)cc2[C@H]2CCC[C@H]21` (relative stereo) [Example 1, (3aR*,4S*,9bS*)-N-[2-(8-cyano-2,3,3a,4,5,9b-hexahydro-1H-cyclopenta[c]quinolin-4-yl)-2-methylpropyl]-4-trifluoromethoxybenzamide]: in test [1] (30 mg/kg s.c. once daily), the “Femoral bone mineral density” value is given as 137 ± 7 mg/cm^2, the “Levator ani muscle weight” value is on record as 60 ± 6 mg/100 g body weight and the Prostate weight is reported as 70 ± 13 mg/100 g body weight. The “weight of the prostate relative to that in the sham control group” value (“weight of the prostate relative to that” below) in test [1] (30 mg/kg s.c.) is given as “about 74%”.
Consider `CC(C)(CNC(=O)c1ccc(OCC(F)(F)F)cc1)[C@H]1Nc2ccc(C#N)cc2[C@H]2CCC[C@H]21` (relative stereo) [Example 8, (3aR*,4S*,9bS*)-N-[2-(8-Cyano-2,3,3a,4,5,9b-hexahydro-1H-cyclopenta[c]quinolin-4-yl)-2-methylpropyl]-4-(2,2,2-trifluoroethoxy)benzamide], for which, in test [2] (30 mg/kg s.c. once daily), the “Femoral bone mineral density” value turned out to be 136 ± 3 mg/cm^2, the “Levator ani muscle weight” value turned out to be 58 ± 6 mg/100 g body weight and the Prostate weight was 62 ± 10 mg/100 g body weight. In addition, in test [2] (30 mg/kg s.c.), the “weight of the prostate relative to that” value is “about 50%”.
Consider `CC(C)(CNC(=O)c1ccc(NC=O)cc1)[C@H]1Nc2ccc(C#N)cc2[C@H]2CCC[C@H]21` (relative stereo) [Example 16, (3aR*,4S*,9bS*)-N-[2-(8-Cyano-2,3,3a,4,5,9b-hexahydro-1H-cyclopenta[c]quinolin-4-yl)-2-methylpropyl]-4-formylaminobenzamide], for which the “RBA (relative binding inhibition rate, Relative Binding Affinity)” value in test [3] was found to be 406. The “weight of the prostate relative to that” value in test [4] is on record as “about 90%”. Moreover, the “Femoral bone mineral density” value in test [4] (7 days per week, DEXA, right femur, Mean ± SD) turned out to be 136 ± 10 mg/cm^2. In addition, in test [4] (7 days per week, Mean ± SD), the “Levator ani muscle weight” value worked out at 60 ± 6 mg/100 g body weight and the Prostate weight was determined as 90 ± 24 mg/100 g body weight.
For `CC(=O)Nc1ccc(C(=O)NCC(C)(C)[C@H]2Nc3ccc(C#N)cc3[C@H]3CCC[C@H]32)cn1` (relative stereo) [Example 23, (3aR*,4S*,9bS*)-6-Acetamido-N-[2-(8-cyano-2,3,3a,4,5,9b-hexahydro-1H-cyclopenta[c]quinolin-4-yl)-2-methylpropyl]nicotinamide], the “RBA (relative binding inhibition rate, Relative Binding Affinity)” value in test [3] is reported as 420. In test [2] (30 mg/kg s.c. once daily), the “Femoral bone mineral density” value turned out to be 137 ± 5 mg/cm^2, the “Levator ani muscle weight” value is 72 ± 6 mg/100 g body weight and the Prostate weight stood at 111 ± 14 mg/100 g body weight. For the same compound, the “weight of the prostate relative to that” value in test [2] (30 mg/kg s.c.) is recorded as “about 90%”.
With `C[C@]12CCC(=O)C[C@@H]1CC[C@@H]1[C@@H]2CC[C@]2(C)[C@@H](O)CC[C@@H]12` [DHT, dihydrotestosterone, reference compound], the “Femoral bone mineral density” value in test [1] (10 mg/kg s.c. once daily) and in test [2] (10 mg/kg s.c. once daily) was 138 ± 6 mg/cm^2 each time. Also, the “Levator ani muscle weight” value in test [1] (10 mg/kg s.c. once daily) was 74 ± 6 mg/100 g body weight; in test [2] (10 mg/kg s.c. once daily) it was 85 ± 9 mg/100 g body weight. Further, the Prostate weight in test [1] (10 mg/kg s.c. once daily) is on record as 166 ± 33 mg/100 g body weight; in test [2] (10 mg/kg s.c. once daily), 162 ± 27 mg/100 g body weight. For the same compound, the “weight of the prostate relative to that” value in test [1] (10 mg/kg s.c.) is reported as “about 175%”; in test [2] (10 mg/kg s.c.), “about 130%”.
